Measurements published in PubChem BioAssay AID1918945 (Molecular Pharmacology Branch, DTP, NCI, 2023).
Where “and” joins values, the source holds several entries; their conditions need not be identical. Equal entries are not always repeated.

System: 883617-216-R-J1-PDC complex spheroid viability
Assay: Anticancer human tumor 883617-216-R-J1-PDC patient-derived bladder carcinoma cell line growth inhibition
Details: for viability, T/C: stronger effect = lower value
Outline: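 Complex spheroids of tumor cells with HUVEC and human MSCs, exposed to iadademstat combined with other agents. Each agent tested in half-log steps from near clinical Cmax (else 10 microM top), DMSO ≤0.25%.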

[1] = curve of first compound, second compound 0.1 µM
[2] = curve of first compound, second compound 0.316 µM
[3] = curve of first compound, second compound 1 µM
[4] = curve of first compound, second compound 3.16 µM
[5] = curve of first compound, second compound 10 µM
[6] = second compound 0.1 µM, first compound 0.00316 µM
[7] = second compound 0.1 µM, first compound 0.01 µM
[8] = second compound 0.1 µM, first compound 0.0316 µM
[9] = second compound 0.1 µM, first compound 0.1 µM
[10] = second compound 0.1 µM, first compound 0.316 µM
[11] = second compound 0.1 µM, first compound 1 µM
[12] = second compound 0.316 µM, first compound 0.00316 µM
[13] = second compound 0.316 µM, first compound 0.01 µM
[14] = second compound 0.316 µM, first compound 0.0316 µM
[15] = second compound 0.316 µM, first compound 0.1 µM
[16] = second compound 0.316 µM, first compound 0.316 µM
[17] = second compound 0.316 µM, first compound 1 µM
[18] = second compound 1 µM, first compound 0.00316 µM
[19] = second compound 1 µM, first compound 0.01 µM
[20] = second compound 1 µM, first compound 0.0316 µM
[21] = second compound 1 µM, first compound 0.1 µM
[22] = second compound 1 µM, first compound 0.316 µM
[23] = second compound 1 µM, first compound 1 µM
[24] = second compound 3.16 µM, first compound 0.00316 µM
[25] = second compound 3.16 µM, first compound 0.01 µM
[26] = second compound 3.16 µM, first compound 0.0316 µM
[27] = second compound 3.16 µM, first compound 0.1 µM
[28] = second compound 3.16 µM, first compound 0.316 µM
[29] = second compound 3.16 µM, first compound 1 µM
[30] = second compound 10 µM, first compound 0.00316 µM
[31] = second compound 10 µM, first compound 0.01 µM
[32] = second compound 10 µM, first compound 0.0316 µM
[33] = second compound 10 µM, first compound 0.1 µM
[34] = second compound 10 µM, first compound 0.316 µM
[35] = second compound 10 µM, first compound 1 µM
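Note: exposure lasted seven days after three days of spheroid growth.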
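Throughout, for viability, T/C: 100% = DMSO vehicle control luminescence.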

Which results are given for `Nc1ncn(C2CC(O)C(CO)O2)c(=O)n1` (configuration not stated) + NC1CCC(NC2CC2c2ccccc2)CC1?
IC50 [1]: > 1000 nM; IC50 [2]: > 1000 nM; IC50 [3]: > 1000 nM; IC50 [4]: > 1000 nM; IC50 [5]: > 1000 nM; viability, T/C [6]: 109%; viability, T/C [7]: 99.4%; viability, T/C [8]: 94.7%; viability, T/C [9]: 78.1%; viability, T/C [10]: 72.6%; viability, T/C [11]: 62.4%; viability, T/C [12]: 103%; viability, T/C [13]: 115%; viability, T/C [14]: 102%; viability, T/C [15]: 89.8%; viability, T/C [16]: 79.4%; viability, T/C [17]: 67.1%; viability, T/C [18]: 103%; viability, T/C [19]: 98.8%; viability, T/C [20]: 96.7%; viability, T/C [21]: 89.6%; viability, T/C [22]: 77.7%; viability, T/C [23]: 69.6%; viability, T/C [24]: 108%; viability, T/C [25]: 100%; viability, T/C [26]: 92.4%; viability, T/C [27]: 84.8%; viability, T/C [28]: 78.6%; viability, T/C [29]: 66.9%; viability, T/C [30]: 101%; viability, T/C [31]: 106%; viability, T/C [32]: 108%; viability, T/C [33]: 92.3%; viability, T/C [34]: 93.8%; viability, T/C [35]: 77.6%

What does the source list for `O=C(C=Cn1cnc(-c2cc(C(F)(F)F)cc(C(F)(F)F)c2)n1)NNc1cnccn1` + NC1CCC(NC2CC2c2ccccc2)CC1?
IC50 [1]: 18.8 nM; IC50 [2]: 17.6 nM; IC50 [3]: 11.4 nM; IC50 [4]: 17 nM; IC50 [5]: 20.7 nM; viability, T/C [6]: 87.4%; viability, T/C [7]: 65.9%; viability, T/C [8]: 36.3%; viability, T/C [9]: 32.7%; viability, T/C [10]: 28.9%; viability, T/C [11]: 26.9%; viability, T/C [12]: 102%; viability, T/C [13]: 60.6%; viability, T/C [14]: 39%; viability, T/C [15]: 31.3%; viability, T/C [16]: 29.7%; viability, T/C [17]: 28.1%; viability, T/C [18]: 87.4%; viability, T/C [19]: 51%; viability, T/C [20]: 36.5%; viability, T/C [21]: 32.7%; viability, T/C [22]: 28.1%; viability, T/C [23]: 26.2%; viability, T/C [24]: 99.5%; viability, T/C [25]: 55.4%; viability, T/C [26]: 44%; viability, T/C [27]: 33%; viability, T/C [28]: 29.6%; viability, T/C [29]: 27.2%; viability, T/C [30]: 99.2%; viability, T/C [31]: 63.2%; viability, T/C [32]: 40.7%; viability, T/C [33]: 36.8%; viability, T/C [34]: 31.8%; viability, T/C [35]: 29.5%

What does the source list for `Nc1ccn(C2OC(CO)C(O)C2(F)F)c(=O)n1` (configuration not stated) + NC1CC1c1ccc(-c2cccc(O)c2)cc1?
IC50 [1]: < 0.949 nM; IC50 [2]: < 0.949 nM; IC50 [3]: < 0.949 nM; IC50 [4]: < 0.949 nM; IC50 [5]: < 0.949 nM; viability, T/C (second compound 0.1 µM, first compound 0.000949 µM): 19.4%; viability, T/C (second compound 0.1 µM, first compound 0.003 µM): 23.2%; viability, T/C (second compound 0.1 µM, first compound 0.00949 µM): 21.9%; viability, T/C (second compound 0.1 µM, first compound 0.03 µM): 22.2%; viability, T/C (second compound 0.1 µM, first compound 0.0949 µM): 23.6%; viability, T/C (second compound 0.1 µM, first compound 0.3 µM): 24.9%; viability, T/C (second compound 0.316 µM, first compound 0.000949 µM): 19.8%; viability, T/C (second compound 0.316 µM, first compound 0.003 µM): 20.6%; viability, T/C (second compound 0.316 µM, first compound 0.00949 µM): 22.8%; viability, T/C (second compound 0.316 µM, first compound 0.03 µM): 21%; viability, T/C (second compound 0.316 µM, first compound 0.0949 µM): 23.2%; viability, T/C (second compound 0.316 µM, first compound 0.3 µM): 23%; viability, T/C (second compound 1 µM, first compound 0.000949 µM): 22%; viability, T/C (second compound 1 µM, first compound 0.003 µM): 20.8%; viability, T/C (second compound 1 µM, first compound 0.00949 µM): 23.4%; viability, T/C (second compound 1 µM, first compound 0.03 µM): 21.5%; viability, T/C (second compound 1 µM, first compound 0.0949 µM): 21.1%; viability, T/C (second compound 1 µM, first compound 0.3 µM): 24.4%; viability, T/C (second compound 3.16 µM, first compound 0.000949 µM): 21.9%; viability, T/C (second compound 3.16 µM, first compound 0.003 µM): 20.8%; viability, T/C (second compound 3.16 µM, first compound 0.00949 µM): 20.6%; viability, T/C (second compound 3.16 µM, first compound 0.03 µM): 25.6%; viability, T/C (second compound 3.16 µM, first compound 0.0949 µM): 21%; viability, T/C (second compound 3.16 µM, first compound 0.3 µM): 20.9%; viability, T/C (second compound 10 µM, first compound 0.000949 µM): 29.5%; viability, T/C (second compound 10 µM, first compound 0.003 µM): 27.2%; viability, T/C (second compound 10 µM, first compound 0.00949 µM): 24.9%; viability, T/C (second compound 10 µM, first compound 0.03 µM): 24.3%; viability, T/C (second compound 10 µM, first compound 0.0949 µM): 23.3%; viability, T/C (second compound 10 µM, first compound 0.3 µM): 21.6%

What does the source list for `CCN(c1cc(-c2ccc(CN3CCOCC3)cc2)cc(C(=O)NCc2c(C)cc(C)[nH]c2=O)c1C)C1CCOCC1`?
viability, T/C (compound 0.00949 µM): 98.4% and 76.7%; viability, T/C (compound 0.03 µM): 84.1% and 80.7%; viability, T/C (compound 0.0949 µM): 85.5% and 79.5%; viability, T/C (compound 0.3 µM): 87.4% and 70.5%; viability, T/C (compound 0.949 µM): 89.7% and 63.1%; viability, T/C (compound 3 µM): 77.4% and 63.9%; IC50 (curve of compound): > 3000 nM
